Laboratory results taken from ChEMBL document CHEMBL1828555, “Primary amino acid derivatives: substitution of the 4'-N'-benzylamide site in (R)-N'-benzyl 2-amino-3-methylbutanamide, (R)-N'-benzyl 2-amino-3,3-dimethylbutanamide, and (R)-N'-benzyl 2-amino-3-methoxypropionamide provides potent anticonvulsants with pain-attenuating properties” (J Med Chem, 2011).
Activity calls are given as the source filed them. The rule behind the calls is not given here.

Experiments:
Mus musculus [1] = test: Anticonvulsant activity in ip dosed albino CF1 mouse assessed as time of peak effect for protection against maximal electroshock-induced seizure; format: functional
[2] = Toxicity in po dosed albino Sprague-Dawley rat assessed as behavioural toxicity; format: organism-based; conditions: in vivo
Rattus norvegicus [3] = test: Anticonvulsant activity in po dosed albino Sprague-Dawley rat assessed as protection against maximal electroshock seizure; format: functional
Rattus norvegicus [4] = test: Toxicity in po dosed albino Sprague-Dawley rat assessed as time of peak effect for behavioural toxicity; format: organism-based; conditions: in vivo
Mus musculus [5] = test: Protective index, ratio of TD50 for ip dosed albino CF1 mouse to ED50 for ip dosed albino CF1 mouse by maximal electroshock test; format: functional
Mus musculus [6] = test: Anticonvulsant activity in ip dosed albino CF1 mouse assessed as protection against subcutaneous pentylenetetrazol-induced seizure; format: functional, organism-based
[7] = Neurotoxicity in ip dosed albino CF1 mouse assessed as median neurological impairing dose after 30 mins; format: toxicity, organism-based; conditions: in vivo
Mus musculus [8] = test: Neurotoxicity in ip dosed albino CF1 mouse assessed as time of peak effect for median neurological impairing; format: toxicity, organism-based; conditions: in vivo
Mus musculus [9] = test: Anticonvulsant activity in ip dosed albino CF1 mouse assessed as protection against maximal electroshock-induced seizure after 30 mins; format: functional; conditions: 0.5 h
Rattus norvegicus [10] = test: Anticonvulsant activity in po dosed albino Sprague-Dawley rat assessed as time of peak effect for protection against maximal electroshock seizure; format: functional
Mus musculus [11] = test: Protective index, ratio of TD50 for ip dosed NMRI mouse to ED50 for ip dosed NMRI mouse by maximal electroshock test; format: functional
Mus musculus [12] = test: Anticonvulsant activity in ip dosed albino CF1 mouse assessed as protection against 6 Hz psychomotor seizure after 30 mins; format: functional; conditions: 0.5 h
Mus musculus [13] = test: Anticonvulsant activity in ip dosed albino CF1 mouse assessed as time of peak effect for protection against 6 Hz psychomotor seizure; format: functional
Mus musculus [14] = test: Anticonvulsant activity in ip dosed NMRI mouse assessed as protection against maximal electroshock seizure after 30 mins; format: functional; conditions: 0.5 h
Mus musculus [15] = test: Analgesic activity in ip dosed NMRI mouse assessed as reduction in formalin-induced neuropathic pain after 30 mins; format: functional; conditions: 0.5 h
Mus musculus [16] = test: Anticonvulsant activity in ip dosed 6 Hz psychomotor seizure model of NMRI mouse assessed as protection against seizure after 30 minutes; format: functional; conditions: 0.5 h
Rattus norvegicus [17] = test: Protective index, ratio of TD50 for po dosed albino Sprague-Dawley rat to ED50 for po dosed albino Sprague-Dawley rat by maximal electroshock test; format: functional
[18] = Neurotoxicity in ip dosed NMRI mouse assessed as median neurological impairing dose after 30 mins by rotarod test; format: toxicity, organism-based; conditions: in vivo
Mus musculus [19] = test: Analgesic activity in ip dosed albino CF1 mouse assessed as reduction of formalin-induced neuropathic pain after 30 mins; format: functional; conditions: 0.5 h
Mus musculus [20] = test: Analgesic activity in ip dosed albino CF1 mouse assessed as time of peak effect for reduction of formalin-induced neuropathic pain; format: functional

SMILES	Time (Mus musculus [1]) [h]	TD50 [2] [mg/kg]	ED50 (Rattus norvegicus [3]) [mg/kg]	Time (Rattus norvegicus [4]) [h]	Ratio TD50/ED50 (Mus musculus [5])	Activity (Mus musculus [6])	TD50 at 0.5 h [7] [mg/kg]	Time (Mus musculus [8]) [h]	ED50 (Mus musculus [9]) [mg/kg]	Time (Rattus norvegicus [10]) [h]	Ratio TD50/ED50 (Mus musculus [11])	ED50 (Mus musculus [12]) [mg/kg]	Time (Mus musculus [13]) [h]	ED50 (Mus musculus [14]) [mg/kg]	ED50 (Mus musculus [15]) [mg/kg]	ED50 (Mus musculus [16]) [mg/kg]	Ratio TD50/ED50 (Rattus norvegicus [17])	TD50 at 0.5 h [18] [mg/kg]	ED50 (Mus musculus [19]) [mg/kg]	Time (Mus musculus [20]) [h]
CC(C)(C)[C@@H](N)C(=O)NCc1ccc(OC(F)(F)F)cc1	1	> 30	23	0.25	2.6	inactive	73	0.25	28	2										
CC(C)(C)[C@@H](N)C(=O)NCc1ccc(OCc2cccc(F)c2)cc1	0.5	> 30	> 30	0.25		inactive	300	0.5	30	0.25										
CC(C)[C@@H](N)C(=O)NCc1ccc(COc2cccc(F)c2)cc1	0.25	> 30	< 30	0.25		inactive	71	0.5	18	0.5	3.9	30	0.5	12	30	> 110				
CCCC(CCC)C(=O)[O-].[Na+] [VALPROATE SODIUM]	0.5			0.5				0.25	270	0.5										
CC(C)(C)[C@@H](N)C(=O)NCc1ccc(-c2ccccc2)cc1	0.5					inactive	30	0.5	30											
C[C@H](N)C(=O)NCc1ccccc1							> 300		> 300											
COC[C@@H](N)C(=O)NCc1ccc(OCc2cccc(F)c2)cc1	0.5	> 500	13		3.9	inactive	58	0.25	15	0.5		< 50	0.5				>38			
COC[C@@H](N)C(=O)NCc1ccc(C(F)(F)F)cc1.Cl						inactive					2.5			19	> 31	55		48		
CC(C)(C)[C@@H](N)C(=O)NCc1ccc(Cl)cc1	0.25	> 30	30	0.25	3.4	inactive	84	0.5	25	0.25		< 100	0.25						25	0.25
Cc1ccc(CNC(=O)[C@H](N)C(C)C)cc1	0.5	> 50	50	0.25		inactive	> 300	0.5	> 300	1										
CC(C)(C)[C@@H](N)C(=O)NCc1ccc(COc2cccc(F)c2)cc1	0.5	> 30	30	0.25		inactive	100	0.5	30	2		> 75								
C[C@@H](N)C(=O)NCc1ccc(OCc2cccc(F)c2)cc1						inactive								17	> 37	> 120				
CC(C)(C)[C@@H](N)C(=O)NCc1ccccc1	0.25	> 500	11		4.7	inactive	66	0.25	14	0.25	4.7	30	0.25	13	> 22	> 71	>45			
CC(C)(C)[C@H](N)C(=O)NCc1ccccc1	0.25					inactive	105	0.25	42		2.5									
CC(C)[C@@H](N)C(=O)NCc1ccc(-c2ccccc2)cc1	0.5	> 30	30	0.25		inactive	> 300	0.5	30	2										
COC[C@@H](N)C(=O)NCc1ccc(OC(F)(F)F)cc1.Cl						inactive								10				30		
O=C1NC(=O)C(c2ccccc2)(c2ccccc2)N1 [PHENYTOIN]	2	> 3000					27	0.25		4										
COC[C@H](N)C(=O)NCc1ccccc1						inactive					1			64	120	> 70		63		
COC[C@H](N)C(=O)NCc1ccc(COc2cccc(F)c2)cc1						inactive	100		30											
CC(C)[C@H](N)C(=O)NCc1ccccc1						inactive	> 300		> 300											
CCC1(c2ccccc2)C(=O)NC(=O)NC1=O [PHENOBARBITAL]	1			0.5	3		66	0.5		5										
C[C@@H](N)C(=O)NCc1ccccc1							100		10										69	
CC(C)[C@@H](N)C(=O)NCc1ccc(C(F)(F)F)cc1	0.5	> 500	13		4.1	inactive	57	0.25	14	1		30	0.5				>38			
CC(C)[C@@H](N)C(=O)NCc1ccc(F)cc1	0.25	> 500	21		3	inactive	97	0.25	32	0.5		63	0.25				>24		32	0.25
COc1ccc(CNC(=O)[C@H](N)C(C)C)cc1	0.5	> 30	> 30	0.25		inactive	30	0.5	> 300	0.25										
CC(C)(C)[C@@H](N)C(=O)NCc1ccc(C(F)(F)F)cc1	0.25	> 30	< 30	0.25	5.5	inactive	133	0.25	24	0.5										
COC[C@@H](NC(C)=O)C(=O)NCc1ccccc1 [LACOSAMIDE]	0.5	> 500					27	0.25		2		10		3.3	15	10		19		
CC(C)[C@H](N)C(=O)NCc1ccc(COc2cccc(F)c2)cc1		> 30	> 30	0.25		inactive	100		30	0.25										
CC(C)[C@@H](N)C(=O)NCc1ccc(Cl)cc1	0.25				3.4	inactive	74	0.25	22			50	0.25						22	0.25
COC[C@@H](N)C(=O)NCc1ccccc1.Cl	0.25					inactive	30	0.25	48		>3.5			34	> 67	> 67		> 120		
